Data set [1] relates to B16F10 cells (mouse melanoma). The data set can be described thus: FITC-Annexin V / PI flow cytometry apoptosis assay, B16F10 cells. The data set is classed as cell-based. The settings on record: 25 μM/mL, 1:1:1 lipid:DOPC:Q16TG, 24 h. From the text: Significant increase of both FITC (fluorescence isothio cyanate) and PE (phycoerythrin) signal in histidinylated lipid treated B16F10 cells confirm apoptosis inducing property of these lipids after 24 hrs. In a flow cytometric quadrant (FITC vs PE), the lower left=(LL) panel represents normal cells and lower right (LR) panel represents early apoptotic cells which increase FITC signal only. Whereas upper right (UR) panel represents late apoptotic cells which increases both FITC and PE signaling and upper left (UL) panel represents necrotic cell only which increases PE signal only. […]
(§1) To quantify apoptotic cell death, we studied the in vitro apoptosis induction efficacy of the presently disclosed histidinylated cationic amphiphiles in mouse melanoma (B16F10) and human lung carcinoma (A549) as model malignant cells by flow cytometry using the FITC-Annexin V Apoptosis Detection Kit (Sigma). […]
(§2) B16F10 & A549 cells were treated with all four histidinylated lipids and liposomal formulation of hydrophobic anti-cancer drug dexamethasone containing DOPC and the helper lipid Q16TG (in 1:1:1 mole ratio of histidinylated lipid:DOPC:Q16TG, 25 μM/mL). […] After 24 h of treatment, cells were stained with annexin V and PI (according to manufacturer protocol, Sigma) and analysed in a flow cytometer (BD FacsCanto II). […]
A general note: A flow cytometer gives signals particle by particle.

The subject of data set [2] is A549 cells (human lung carcinoma). Description: FITC-Annexin V / PI flow cytometry apoptosis assay, A549 cells. The data set is classed as cell-based. The settings on record: 25 μM/mL, 1:1:1 lipid:DOPC:Q16TG, 24 h.
Excerpt: Significant increase of both FITC and PE signal in histidinylated lipid treated A549 cells confirm apoptosis inducibility property of these lipids after 24 hrs. In a flow cytometric quadrant (FITC vs PE), the lower left (LL) panel represents normal cells and lower right (LR) panel represents early apoptotic cells which increase FITC signal only. Whereas upper right (UR) panel represents late apoptotic cells which increases both FITC and PE signaling and upper left (UL) panel represents necrotic cell only which increases PE signal only. […]
as §1, §2

A short description of the next data set: in vitro. Conditions: African green monkey, COS-1 cells (non-cancerous).
Data set [3] can be described thus: MTT cell viability assay, normal RAW 264.7 cells. The format is cell-based. The settings on record: mouse, RAW 264.7 cells (non-cancerous mouse macrophage cells), after 24 and 48 h. On the technique in general: Formazan colour is commonly taken as a measure of viable cells.
Data set [4] deals with mRNA of Bcl-2, Bcl-xL, BAX, Caspase 3, Caspase 9 in A549 cells. The data set can be described thus: Semi-quantitative RT-PCR of apoptosis related genes in A549 cells. The data set is classed as cell-based, human. Conditions: 25 μM/mL, 24 h, vs untreated cells. As to the method: FIG. 11 Describes reverse transcription-PCR analysis of (BAX, BAK, Caspase 3 & 9) and anti-apoptotic genes (Bcl-2, Bcl-xL & NF-kB) in A549 cells after 24 h treatment with histidinylated lipids. […] After 4 h the medium was discarded and 3 mL of DMEM medium (Sigma) containing 10% fetal bovine serum was added to each well and left for 24 h. After 24 h, mRNAs were extracted from all the cells, cDNA was synthesized by Reverse transcription reaction and amplified by Polymerase Chain Reaction and finally resolved in 2% agarose gel.
Next, toward obtaining mechanistic insights into the origin of the observed in-vitro apoptosis inducing properties of the presently disclosed histidinylated lipids, we conducted conventional RT-PCR (Reversed transcriptase polymerase chain reaction) assays. Effect of the histidinylated lipids on the mRNA expression of various apoptosis related genes were analyzed by RT-PCR. The human lung carcinoma (A549) cells as a reference, were treated with the liposomal formulations of the histidinylated lipid containing DOPC & helper lipid Q16TG (25 μM/mL) and untreated cells were used as control. After 24 h, the total mRNA was isolated by conventional method using trizol. RT-PCR products were resolved on a 2% agarose gel electrophoresis and visualized with ethidium bromide. Our findings are consistent with the apoptosis inducing abilities of the presently disclosed histidinylated lipids being mediated via inhibition of transcription of the anti-apoptotic Bcl-2 & Bcl-xL genes & via activation of pro-apoptotic BAX & BAK signal transduction pathways. […] 18S m-RNA was used as loading control for all these lanes (FIG. 11).
Semi-quantitative RT-PCR analysis was performed to measure the changes in gene expression of treated cells in contrast to the untreated cells. A549 cells (ATCC) were seeded at a density of 10^6 cells/well in a 6 well plate usually 18-24 h before transfection. […] Cells were washed with phosphate-buffered saline (PBS), pH 7.4 (1×100 μL) and the 1 mL liposomal solutions were added to the cells. […] Then the cells were incubated at a humidified atmosphere containing 5% CO2 at 37° C. for 24 h. After 24 h of transfection, lipoplex treated and untreated cells were lysed directly in 6-well plates with 1 mL of TRIzol® reagent (Invitrogen) following removal of media and washing with PBS (1 mL). The cells were dissolved in TRI Reagent and cell lysates were pipetted several times to clear the haziness. Cell lysates were taken in 1.5 mL centrifuge tubes, after 10 min 0.2 mL chloroform was added. The samples were covered tightly and shaken vigorously for 15 sec, incubated for 10 min at room temperature and centrifuged at 14,000×g for 15 min at 4° C. Following centrifugation, the mixture separates into a lower red phenol-chloroform phase, interphase and the colourless upper aqueous phase. RNA remains exclusively in the aqueous phase whereas DNA and proteins are in the interphase and organic phase. Aqueous phase was transferred in to a fresh tube; 0.8 mL of isopropanol was added and mixed with pipette, kept for 15 min at −20° C. and centrifuged at 20,000 g for 20 min at 4° C. The supernatant was removed and the RNA pellet was washed with 500 μL cold 75% ethanol and centrifuged at 20,000 g for 10 min at 4° C. Ethanol was aspirated out and the pellet air-dried by inverting the tube. Finally the RNA pellet was dissolved in 15 μL of DEPC treated water, the ODs measured at 260 and 280 nm and the concentrations and purities of RNAs were calculated.

Data set [5] concerns CHO cells (Chinese hamstar ovarian cancer cells). The data set can be described thus: MTT cell viability assay, CHO cells. The settings on record: CHO cell line; after 24 h as well as after 48 h. The data set is classed as cell-based, Chinese hamster.
In another data set the test system is B16F10 melanoma tumor. The data set can be described thus: Tumour growth inhibition assay, B16F10 melanoma in C57BL/6J mice. The format is in vivo, mouse. Conditions: liposomes 1:1:1 with DOPC:Q16TG injected at tumour site on day 14, 16, 18, 21, 24.
The test system of data set [6] is A549 cells (human lung carcinoma cells). Description: cells. Conditions: A549, 24 h, read-out: cell viability.
Excerpt: (§3) The absorption obtained with reduced formazan with cells in the absence of lipids was taken to be 100. The assay was done after 24 (A) and 48 (B) hrs of the treatment.
(§4) The yellow tetrazolium salt (MTT) is reduced by mitochondrial dehydrogenase enzyme from metabolically active cells to form insoluble purple formazan crystals, which are solubilized by the addition of a mixture of DMSO & MeOH. The color can then be quantified by spectrophotometric method. For each cell type a linear relationship between cell number and absorbance is established, enabling accurate, straightforward quantification of changes in proliferation.
(§5) Cells were seeded at a density of 10000 (for B16F10, A549, MCF-7 & CHO) Or 15000 (for Raw264.7) per well in a 96-well plate for 18-24 h before the treatment. Cells were incubated with the liposomes of the presently described histidinylated cationic amphiphiles in the concentration range 40-16 μmol/mL in serum free medium. Immediately before the treatment, cells plated in the 96-well plate were washed with PBS (2×100 μL). After 4 h of incubation, the medium was replaced with fresh complete medium containing 10% FBS. The 10 μl of freshly prepared MTT solution in PBS (5 mg/mL) was added to each well of the plate after 24 or 48 h. The yellow tetrazolium salt (MTT) was reduced by mitochondrial dehydrogenase enzyme from metabolically active cells to form insoluble purple formazan crystals, which are solubilized by the addition of a mixture of DMSO & MeOH. The intensities of color were then quantified by spectrophotometric means. For each cell type a linear relationship between cell number and absorbance was established, enabling accurate, straightforward quantification of changes in proliferation.
Data set [7] concerns non-cancerous healthy COS-1 cells. Conditions: normal COS-1 cells; after 24 and 48 h.
Excerpt: as §3, §4, §5

This is an account of results in patent publication US20150315154A1 (COUNCIL OF SCIENTIFIC & INDUSTRIAL RESEARCH, priority 2012, published 2015).

Some results are limits rather than exact numbers.

The term viability denotes a read-out of living cells in per cent, often relative to untreated cells. As usually defined, the cell viability is a per cent measure of how many cells are alive, often set against a control.

Excerpt for in vitro: as §3, §4, §5

Regarding `CCCCCCCCCCCCCCCCOC(=O)C[C@H](NC(=O)[C@@H](N)Cc1c[nH]cn1)C(=O)OCCCCCCCCCCCCCCCC`, the “apoptosis induction (annexin V / PI)” value in [1] is “enhanced apoptosis”. For the same compound, the “apoptosis induction (annexin V / PI)” value in data set [2] is listed as “enhanced apoptosis”. For the same compound, the viability in “in vitro” is approximately 70%. The compound also showed a viability in data set [3] of more than 80%. In addition, in data set [4], the “Bcl-2 mRNA level” value is reported as “significantly decreased mRNA levels”, the “Bcl-xL mRNA level” value was “significantly decreased mRNA levels”, the “Caspase 3 expression” value is “up regulation” and the “Caspase 9 expression” value is on record as “up regulation”. Also, the “expression of pro-apoptotic gene BAX” value in data set [4] is listed as “up regulation”. The cytotoxicity result in data set [5] is “most potent cytotoxicity”. For the same compound, the tumor growth inhibition result with B16F10 melanoma tumor is given as “highest tumor growth inhibition”. For the same compound, the viability at 40 µM in data set [6] fell in the range of 20 to 40%.

As for `CCCCCCCCCCCCCCCCCCOC(=O)C[C@H](NC(=O)[C@@H](N)Cc1c[nH]cn1)C(=O)OCCCCCCCCCCCCCCCCCC`, the viability in the data set “in vitro” was approximately 70%. Also, the viability in [3] is more than 80%. For the same compound, in data set [4], the “Bcl-2 mRNA level” value was “did not show significant down regulation”, the “Bcl-xL mRNA level” value is listed as “did not show significant down regulation”, the “Caspase 3 expression” value is “up regulation” and the “Caspase 9 expression” value was “up regulation”. Further, the “expression of pro-apoptotic gene BAX” value in data set [4] is listed as “up regulation”. Moreover, in the data set with B16F10 melanoma tumor, the tumor growth inhibition result is “moderate tumour growth inhibition”. In addition, in data set [6], the viability at 40 µM fell in the range of 20 to 40%.

As for `CCCCCCCCCCCCCCCCOC(=O)CC[C@H](NC(=O)[C@@H](N)Cc1c[nH]cn1)C(=O)OCCCCCCCCCCCCCCCC`, the “apoptosis induction (annexin V / PI)” value in [1] is given as “enhanced apoptosis”. Besides, in data set [2], the “apoptosis induction (annexin V / PI)” value is recorded as “enhanced apoptosis”. The compound further displayed a viability in “in vitro” of approximately 70%. In data set [3], this compound gave a viability of more than 80%. In addition, in [4], the “Bcl-2 mRNA level” value is “significantly decreased mRNA levels”, the “Bcl-xL mRNA level” value is reported as “significantly decreased mRNA levels”, the “Caspase 3 expression” value was “up regulation” and the “Caspase 9 expression” value is listed as “up regulation”. For the same compound, the “expression of pro-apoptotic gene BAX” value in data set [4] is “up regulation”. Further, the cytotoxicity result in data set [5] is recorded as “most potent cytotoxicity”. Moreover, the tumor growth inhibition result with B16F10 melanoma tumor is “highest tumor growth inhibition”. The viability at 40 µM in data set [6] was 20 to 40%.

`CCCCCCCCCCCCCCCCCCOC(=O)CC[C@@H](NC(=O)[C@@H](N)Cc1ncc[nH]1)C(=O)OCCCCCCCCCCCCCCCCCC.Cl.Cl` [HE-18, 2-((S)-2-ammonio-3-((R)-1,5-bis(octaadecyloxy)-1,5-dioxopentan-2-ylamino)-3-oxopropyl)-1H-imidazol-3-iumchloride] registered a cell viability in data set [7] of approximately 70%. In data set [4], the “Bcl-2 mRNA level” value is recorded as “did not show significant down regulation”, the “Bcl-xL mRNA level” value is listed as “did not show significant down regulation”, the “Caspase 3 expression” value is given as “up regulation” and the “Caspase 9 expression” value is recorded as “up regulation”. Further, the “expression of pro-apoptotic gene BAX” value in data set [4] was “up regulation”. Besides, the cytotoxicity result in [5] was “most potent cytotoxicity”. For the same compound, the tumor growth inhibition result in the data set with B16F10 melanoma tumor is “moderate tumour growth inhibition”.
